Assay results as given in the supplement of paper PMC8149375.
One block for each compound: values may come before it.

Experiments:
Conditions in all cases: treatment: drug alone; 5 days
769-P [1] = test: AUC of dose-response viability curve, drug alone (arbitrary (AUC of normalised viability)); higher = less growth inhibition
Method: (§1)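 Primary HTS: 8 RCC cell lines treated with 8 doses (up to 10 uM) of each library drug alone for 5 days; viability read by CellTiter-Glo and normalised to DMSO. GI50 was fitted with XLfit (4-parameter), AUC is the area under the dose-response curve, and minimum viability is the lowest fraction of DMSO viability across doses.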

TK-10 [2] = test: as above
Method: as §1

CAKI-1 [3] = test: as above
Method: as §1

786-O [4] = test: as above
Method: as §1

SN12C [5] = test: as above
Method: as §1

A498 [6] = test: as above
Method: as §1

UO-31 [7] = test: as above
Method: as §1

ACHN [8] = test: as above
Method: as §1

769-P [9] = test: GI50, drug alone; higher = less potent
Method: as §1

TK-10 [10] = test: GI50, drug alone; higher = less potent
Method: as §1

CAKI-1 [11] = test: GI50, drug alone; higher = less potent
Method: as §1

786-O [12] = test: GI50, drug alone; higher = less potent
Method: as §1

SN12C [13] = test: GI50, drug alone; higher = less potent
Method: as §1

A498 [14] = test: GI50, drug alone; higher = less potent
Method: as §1

UO-31 [15] = test: GI50, drug alone; higher = less potent
Method: as §1

ACHN [16] = test: GI50, drug alone; higher = less potent
Method: as §1

769-P [17] = test: minimum viability across doses, drug alone, relative to DMSO (fraction); higher = less growth inhibition
Method: as §1

TK-10 [18] = test: as above
Method: as §1

CAKI-1 [19] = test: as above
Method: as §1

786-O [20] = test: as above
Method: as §1

SN12C [21] = test: as above
Method: as §1

A498 [22] = test: as above
Method: as §1

UO-31 [23] = test: as above
Method: as §1

ACHN [24] = test: as above
Method: as §1

Compound: Nc1ncnc2c1c(-c1cnc3[nH]ccc3c1)nn2C1CCCC1 [PP-121]
AUC of dose-response viability curve (769-P [1]): 2.53
AUC of dose-response viability curve (TK-10 [2]): 2.1
AUC of dose-response viability curve (CAKI-1 [3]): 2.37
AUC of dose-response viability curve (786-O [4]): 2.13
AUC of dose-response viability curve (SN12C [5]): 2.54
AUC of dose-response viability curve (A498 [6]): 3.11
AUC of dose-response viability curve (UO-31 [7]): 3.41
AUC of dose-response viability curve (ACHN [8]): 2.23
GI50, drug alone (769-P [9]): 1350 nM
GI50, drug alone (TK-10 [10]): 415 nM
GI50, drug alone (CAKI-1 [11]): 583 nM
GI50, drug alone (786-O [12]): 429 nM
GI50, drug alone (SN12C [13]): 1040 nM
GI50, drug alone (A498 [14]): 2730 nM
GI50, drug alone (UO-31 [15]): 1530 nM
GI50, drug alone (ACHN [16]): 455 nM
minimum viability across doses (769-P [17]): 0.0337
minimum viability across doses (TK-10 [18]): 0.0113
minimum viability across doses (CAKI-1 [19]): 0.00982
minimum viability across doses (786-O [20]): 0.00427
minimum viability across doses (SN12C [21]): 0.0559
minimum viability across doses (A498 [22]): 0.0928
minimum viability across doses (UO-31 [23]): 0.0162
minimum viability across doses (ACHN [24]): 0.0162

Compound: COc1ccc(COc2cc3oc(=O)c4cc(C(C)O)ccc4c3cc2OC)cc1 (stereo not given) [Palomid 529]
AUC of dose-response viability curve (769-P [1]): 3.39
AUC of dose-response viability curve (TK-10 [2]): 2.69
AUC of dose-response viability curve (CAKI-1 [3]): 3.57
AUC of dose-response viability curve (786-O [4]): 2.56
AUC of dose-response viability curve (SN12C [5]): 3.3
AUC of dose-response viability curve (A498 [6]): 4.44
AUC of dose-response viability curve (UO-31 [7]): 5.25
AUC of dose-response viability curve (ACHN [8]): 3.5
GI50, drug alone (769-P [9]): > 10000 nM
GI50, drug alone (TK-10 [10]): > 10000 nM
GI50, drug alone (CAKI-1 [11]): > 10000 nM
GI50, drug alone (786-O [12]): 5750 nM
GI50, drug alone (SN12C [13]): > 10000 nM
GI50, drug alone (A498 [14]): > 10000 nM
GI50, drug alone (UO-31 [15]): > 10000 nM
GI50, drug alone (ACHN [16]): > 10000 nM
minimum viability across doses (769-P [17]): 0.854
minimum viability across doses (TK-10 [18]): 0.633
minimum viability across doses (CAKI-1 [19]): 0.668
minimum viability across doses (786-O [20]): 0.251
minimum viability across doses (SN12C [21]): 0.844
minimum viability across doses (A498 [22]): 1.12
minimum viability across doses (UO-31 [23]): 1.2
minimum viability across doses (ACHN [24]): 0.893

Compound: Cc1ccc(Nc2nccc(N(C)c3ccc4c(C)n(C)nc4c3)n2)cc1S(N)(=O)=O.Cl [Pazopanib HCl]
AUC of dose-response viability curve (769-P [1]): 3.18
AUC of dose-response viability curve (TK-10 [2]): 3.14
AUC of dose-response viability curve (CAKI-1 [3]): 3.09
AUC of dose-response viability curve (786-O [4]): 2.85
AUC of dose-response viability curve (SN12C [5]): 3.1
AUC of dose-response viability curve (A498 [6]): 3.57
AUC of dose-response viability curve (UO-31 [7]): 4.39
AUC of dose-response viability curve (ACHN [8]): 3.21
GI50, drug alone (769-P [9]): > 10000 nM
GI50, drug alone (TK-10 [10]): > 10000 nM
GI50, drug alone (CAKI-1 [11]): 6830 nM
GI50, drug alone (786-O [12]): < 3 nM
GI50, drug alone (SN12C [13]): 5960 nM
GI50, drug alone (A498 [14]): > 10000 nM
GI50, drug alone (UO-31 [15]): > 10000 nM
GI50, drug alone (ACHN [16]): 5260 nM
minimum viability across doses (769-P [17]): 0.207
minimum viability across doses (TK-10 [18]): 0.661
minimum viability across doses (CAKI-1 [19]): 0.0579
minimum viability across doses (786-O [20]): 0.427
minimum viability across doses (SN12C [21]): 0.193
minimum viability across doses (A498 [22]): 0.514
minimum viability across doses (UO-31 [23]): 0.63
minimum viability across doses (ACHN [24]): 0.224

Continued, in another order:

GI50, drug alone (786-O [12]): 589 nM
GI50, drug alone (ACHN [16]): 62.9 nM
Compound: CCOc1cc2ncc(C#N)c(Nc3ccc(F)c(Cl)c3)c2cc1NC(=O)/C=C/CN(C)C [Pelitinib (EKB-569)]
AUC of dose-response viability curve (769-P [1]): 2.02
AUC of dose-response viability curve (TK-10 [2]): 1.75
AUC of dose-response viability curve (CAKI-1 [3]): 1.87
AUC of dose-response viability curve (786-O [4]): 2.08
AUC of dose-response viability curve (SN12C [5]): 2.38
AUC of dose-response viability curve (A498 [6]): 2.96
AUC of dose-response viability curve (UO-31 [7]): 3.24
AUC of dose-response viability curve (ACHN [8]): 1.41
GI50, drug alone (769-P [9]): 357 nM
GI50, drug alone (TK-10 [10]): 161 nM
GI50, drug alone (CAKI-1 [11]): 209 nM
GI50, drug alone (SN12C [13]): 995 nM
GI50, drug alone (A498 [14]): 2190 nM
GI50, drug alone (UO-31 [15]): 1080 nM
minimum viability across doses (769-P [17]): 0.0352
minimum viability across doses (TK-10 [18]): 0.01
minimum viability across doses (CAKI-1 [19]): 0.0302
minimum viability across doses (786-O [20]): 0.00469
minimum viability across doses (SN12C [21]): 0.0102
minimum viability across doses (A498 [22]): 0.0185
minimum viability across doses (UO-31 [23]): 0.027
minimum viability across doses (ACHN [24]): 0.00498

GI50, drug alone (786-O [12]): 1500 nM
GI50, drug alone (ACHN [16]): > 10000 nM
Compound: Cl.N=C(N)NC(=N)NCCc1ccccc1 [Phenformin hydrochloride]
AUC of dose-response viability curve (769-P [1]): 3.29
AUC of dose-response viability curve (TK-10 [2]): 2.95
AUC of dose-response viability curve (CAKI-1 [3]): 3.22
AUC of dose-response viability curve (786-O [4]): 2.31
AUC of dose-response viability curve (SN12C [5]): 2.87
AUC of dose-response viability curve (A498 [6]): 3.42
AUC of dose-response viability curve (UO-31 [7]): 3.11
AUC of dose-response viability curve (ACHN [8]): 3.53
GI50, drug alone (769-P [9]): > 10000 nM
GI50, drug alone (TK-10 [10]): 6890 nM
GI50, drug alone (CAKI-1 [11]): > 10000 nM
GI50, drug alone (SN12C [13]): 5250 nM
GI50, drug alone (A498 [14]): > 10000 nM
GI50, drug alone (UO-31 [15]): 3090 nM
minimum viability across doses (769-P [17]): 0.841
minimum viability across doses (TK-10 [18]): 0.333
minimum viability across doses (CAKI-1 [19]): 0.821
minimum viability across doses (786-O [20]): 0.116
minimum viability across doses (SN12C [21]): 0.0912
minimum viability across doses (A498 [22]): 0.514
minimum viability across doses (UO-31 [23]): 0.0295
minimum viability across doses (ACHN [24]): 0.682
